Measurements taken from patent publication US9090599B2, “Heteroarylmethyl amides” (Hoffman-La Roche Inc., priority 2010, dated 2015).
Like-named read-outs stand apart in the source and are kept apart here.

Columns and labels:
ABCA1 protein = test: Detection of upregulation of ABCA1 protein in THP-1 macrophage cells (ApoA-I binding, high content imaging); type: cell-based; conditions: 24 hrs with compound, AlexaFluor 647 ApoA-I binding, read-out: ABCA1 protein increasing efficacy EC50
Procedure: The ability of compounds of the invention to increase the level of ABCA1 protein is determined in replicate cultures of THP-1 macrophage cells in 96-well microplates. Cells are plated at an initial density of 100,000 cells/well in 100 μl medium and differentiated to adherent macrophages with the addition of PMA (100 nM) for 68 hrs in 10% fetal bovine serum, 3 μl/L of b-mercaptoethanol, RPMI-1640 medium. Then, cells are incubated with RPMI-1640 medium containing 1% FCS, 25 μg/ml acetylated LDL, for 24 hours at 37°. Following incubation with acetylated LDL, cells are washed twice with 50 μl PBS and incubated with 100 μl of RPMI-1640 medium containing the compound of interest solubilized in DMSO for an additional 24 hrs. The final DMSO concentration in presence of cells is maintained at 0.5%. ApoA-I binding assay using High Content Image Analysis is initiated by replacing with fresh medium, RPMI without Phenol Red, 0.2% BSA containing AlexaFluor®647 labeled ApoA-I for 2 h/37° C./5% CO2. Then, cells are fixed with 4% Formaldehyde in PBS (15 min, RT). Following Nuclei are stained with Hoechst solution (3 μM PBS) and Cytoplasm with Cell Mask Blue (2 μg/ml PBS), 15 min, RT. Finally the stained cells are fixed with a second round of formaldehyde treatment. Fixed stained cells are washed and kept in PBS at 4° C. and can be read immediately until one month after preparation.
The Alexa Fluor 647-labeled Apolipoprotein A-I (20 nM) was prepared as follows: Human recombinant Apolipoprotein A-I (ApoA-I) was exchanged to a buffer of 0.02 M NaHCO3 at pH 8.2 on an NAP desalting column (GE Healthcare) and brought to a concentration to 40 μM (1.13 mg/ml) by adjustment with the same buffer. The ApoA-I was fluorescently labeled by incubation with Alexa Fluor carboxylic acid succimidyl ester. (Alexa Fluor 647, Invitrogen A-20006) at a 2:1 molar ratio (Alexa to ApoA-I) for 1 h under shaking at RT. The remaining unconjugated label was removed by buffer exchange to 0.02M NaHCO3 at pH 8.2.
Imaging and data collection were performed on an OPERA confocal microplate imaging reader using a 20× water immersion objective and UV360 or 405 laser to identify the cell nuclei and a 635 laser to identify the fluorescent ApoA-I. Eight fields of view are captured per well. Image capture and analysis was performed with the Acapella software. Background fluorescence detected in control wells without ApoA-I was subtracted.
Using XLfit3 program (ID Business Solutions Ltd. UK), the model 205 for Dose Response One Site is used to calculate the EC50 values. […] Preferably, the compounds of the present invention have EC50 values in a range of 0.1 μM to 3 μM.

human CB1 receptor = target: T1, human CB1 receptor (Homo sapiens, UniProt P21554); test: CB1 receptor affinity, [3H]-CP-55,940 displacement, HEK cell membranes; type: binding; conditions: read-out: CB1 receptor affinity [% inhibition @ 10 μM]
T1 construct: expressed in transfected cells; host or cells: human embryonic kidney (HEK) cells, Semliki Forest Virus system, membrane preparations
T1 sequence (P21554 whole entry): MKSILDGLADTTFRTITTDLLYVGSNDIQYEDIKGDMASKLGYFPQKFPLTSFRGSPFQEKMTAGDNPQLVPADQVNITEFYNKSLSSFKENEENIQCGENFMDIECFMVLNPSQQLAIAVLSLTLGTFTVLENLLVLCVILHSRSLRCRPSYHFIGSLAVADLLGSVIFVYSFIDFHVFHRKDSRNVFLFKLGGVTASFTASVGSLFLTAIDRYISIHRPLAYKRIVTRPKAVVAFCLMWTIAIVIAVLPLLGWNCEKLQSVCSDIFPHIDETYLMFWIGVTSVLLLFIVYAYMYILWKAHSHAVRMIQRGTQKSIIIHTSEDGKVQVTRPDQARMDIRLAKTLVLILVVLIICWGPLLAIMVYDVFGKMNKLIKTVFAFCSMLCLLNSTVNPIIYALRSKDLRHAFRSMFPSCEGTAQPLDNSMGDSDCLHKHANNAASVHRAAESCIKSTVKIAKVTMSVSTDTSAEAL
Procedure, shortened: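 Membranes from HEK cells transiently expressing human CB1 (Semliki Forest Virus system) incubated with [3H]-CP-55,940 with or without test compound. Bound and free ligand separated by glass-fibre filtration and bound radioactivity counted by scintillation. Compounds tested at 10 μM, values reported as % inhibition of radioligand binding.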

human CB2 receptor = target: T2, human CB2 receptor (Homo sapiens, UniProt P34972); test: CB2 receptor affinity, [3H]-CP-55,940 displacement, HEK cell membranes; type: binding; conditions: 10 μM compound, radioligand [3H]-CP-55,940
T2 construct: expressed in transfected cells; host or cells: human embryonic kidney (HEK) cells, Semliki Forest Virus system, membrane preparations
T2 sequence (P34972 whole entry): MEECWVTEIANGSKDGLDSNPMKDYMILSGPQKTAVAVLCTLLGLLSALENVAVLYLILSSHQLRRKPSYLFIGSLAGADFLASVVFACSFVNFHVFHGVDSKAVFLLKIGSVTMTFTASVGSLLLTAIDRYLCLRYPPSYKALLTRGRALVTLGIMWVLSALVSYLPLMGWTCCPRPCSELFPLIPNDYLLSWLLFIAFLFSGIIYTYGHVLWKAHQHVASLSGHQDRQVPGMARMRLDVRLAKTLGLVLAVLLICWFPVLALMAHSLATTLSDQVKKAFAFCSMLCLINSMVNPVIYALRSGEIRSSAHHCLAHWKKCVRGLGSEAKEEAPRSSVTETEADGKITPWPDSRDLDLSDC
Procedure, shortened: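 Membranes from HEK cells transiently expressing human CB2 (Semliki Forest Virus) incubated with [3H]-CP-55,940 ± compound at 10 μM. Bound ligand separated by glass-fibre filtration and counted by scintillation; reported as % inhibition at 10 μM.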

[1] = 10 μM compound, radioligand [3H]-CP-55,940

Structure (SMILES)	inhibition at 10 µM (human CB1 receptor; [1]) [%]	inhibition at 10 µM (human CB2 receptor) [%]	EC50 (ABCA1 protein) [nM]	inhibition at 10 µM (human CB1 receptor) [%]
CC(C)c1nc(CNC(=O)c2cnc(OCC(F)(F)F)c(-c3ccc(Cl)cc3)c2)cs1 [Example 8, 5-(4-chloro-phenyl)-N-(2-isopropyl-thiazol-4-ylmethyl)-6-(2,2,2-trifluoro-ethoxy)-nicotinamide]		10	900	24
CC(C)c1cc(CNC(=O)c2cc(-c3ccc(Cl)cc3)c(OCC(F)(F)F)cn2)on1 [Example 2, 4-(4-chloro-phenyl)-5-(2,2,2-trifluoro-ethoxy)-pyridine-2-carboxylic acid (3-isopropyl-isoxazol-5-ylmethyl)-amide]	30	14	1090	
O=C(NCc1cc(C(F)(F)F)on1)c1cc(-c2ccc(Cl)cc2)c(OCC(F)(F)F)nn1 [Example 67, 5-(4-chloro-phenyl)-6-(2,2,2-trifluoro-ethoxy)-pyridazine-3-carboxylic acid (5-trifluoromethyl-isoxazol-3-ylmethyl)-amide]	25	3	780	
COc1cc(CNC(=O)c2cnc(O[C@@H](C)C(F)(F)F)c(-c3ccc(Cl)cc3)n2)on1 [Example 29, (S)-6-(4-chlorophenyl)-N-((3-methoxyisoxazol-5-yl)methyl)-5-(1,1,1-trifluoropropan-2-yloxy)pyrazine-2-carboxamide]	27	17	1870	
O=C(NCc1nc(C(F)(F)F)no1)c1cnc(OCC(F)(F)F)c(-c2ccc(F)c(F)c2)c1 [Example 89, 5-(3,4-difluorophenyl)-6-(2,2,2-trifluoroethoxy)-N-((3-(trifluoromethyl)-1,2,4-oxadiazol-5-yl)methyl)nicotinamide]	28	4	1960	
O=C(NCc1coc(C2CC2)n1)c1cc(-c2ccc(Cl)cc2)c(OCC(F)(F)F)cn1 [Example 70, 4-(4-chlorophenyl)-N-((2-cyclopropyloxazol-4-yl)methyl)-5-(2,2,2-trifluoroethoxy)picolinamide]	28	14	1560	

Now from value to molecule, other results behind:

inhibition at 10 µM (human CB1 receptor; [1]) [%]	inhibition at 10 µM (human CB2 receptor) [%]	Structure (SMILES)	EC50 (ABCA1 protein) [nM]	inhibition at 10 µM (human CB1 receptor) [%]
15	8	O=C(NCc1nc(C(F)(F)F)no1)c1cnc(OCC(F)(F)F)c(-c2ccc3nonc3c2)c1 [Example 100, 5-Benzo[1,2,5]oxadiazol-5-yl-6-(2,2,2-trifluoro-ethoxy)-N-(3-trifluoromethyl-[1,2,4]oxadiazol-5-yl-methyl)-nicotinamide]	580	
33	7	CC(C)c1cc(CNC(=O)c2ccc(OCC(F)(F)F)c(-c3ccc(Cl)cc3)n2)on1 [Example 64, 6-(4-chloro-phenyl)-5-(2,2,2-trifluoro-ethoxy)-pyridine-2-carboxylic acid (3-isopropyl-isoxazol-5-ylmethyl)-amide]	860	
35	19	O=C(NCc1nc(C2CC2)no1)c1cc(-c2ccc(Cl)cc2)c(OCC(F)(F)F)nn1 [Example 48, 5-(4-chloro-phenyl)-6-(2,2,2-trifluoro-ethoxy)-pyridazine-3-carboxylic acid (3-cyclopropyl-[1,2,4]oxadiazol-5-ylmethyl)-amide]	730	
22	6	CCc1nc(CNC(=O)c2cnc(OCC(F)(F)F)c(-c3ccc(Cl)cc3)c2)cs1 [Example 7, 5-(4-chloro-phenyl)-N-(2-ethyl-thiazol-4-ylmethyl)-6-(2,2,2-trifluoro-ethoxy)-nicotinamide]	1500	
30	-3	O=C(NCc1cc(C(F)(F)F)no1)c1cc(-c2ccc(Cl)cc2)c(OCC(F)(F)F)nn1 [Example 60, 5-(4-chloro-phenyl)-6-(2,2,2-trifluoro-ethoxy)-pyridazine-3-carboxylic acid (3-trifluoromethyl-isoxazol-5-ylmethyl)-amide]	750	
30	0	O=C(NCc1nc(C(F)(F)F)no1)c1cc(-c2ccc(Cl)cc2)c(OCC(F)(F)F)nn1 [Example 46, 5-(4-chloro-phenyl)-6-(2,2,2-trifluoro-ethoxy)-pyridazine-3-carboxylic acid (3-trifluoromethyl-[1,2,4]oxadiazol-5-ylmethyl)-amide]	780	
18	7	COc1cc(CNC(=O)c2cc(-c3ccc(Cl)cc3)c(OCC(F)(F)F)nn2)on1 [Example 23, 5-(4-chlorophenyl)-N-((3-methoxyisoxazol-5-yl)methyl)-6-(2,2,2-trifluoroethoxy)pyridazine-3-carboxamide]	930	
